Data from ChEMBL document CHEMBL1201862, “PubChem BioAssay data set” (2004).
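Five compound concentrations were applied to cells in 96-well plates for 48 hours; endpoints were derived by simple linear interpolation of the resulting dose-response curve. GI50 = concentration required for 50% inhibition of growth.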 Activity calls are given as the source filed them. Rule as the data show it: active = GI50 up to about 1.1 µM and inactive = higher.

Tests used:
Assay in all cases: NCI tumour cell line growth inhibition, 48 h
RXF 393 = system: RXF 393
HCT-116 = system: HCT-116
DMS-114 = system: DMS-114
SK-MEL-28 = system: SK-MEL-28
SK-OV-3 = system: SK-OV-3
OVCAR-8 = system: OVCAR-8
MOLT-4 = system: MOLT-4
KM-20L2 = system: KM-20L2
SK-MEL-2 = system: SK-MEL-2
CAKI-1 = system: CAKI-1
SW-620 = system: SW-620
OVCAR-3 = system: OVCAR-3
CCRF-CEM = system: CCRF-CEM
UO-31 = system: UO-31
OVCAR-5 = system: OVCAR-5
XF498 = system: XF498
TK-10 = system: TK-10
SNB-19 = system: SNB-19
SF-268 = system: SF-268
786-0 = system: 786-0
HCT-15 = system: HCT-15
NCI-H522 = system: NCI-H522
M14 = system: M14
KM12 = system: KM12
RPMI-8226 = system: RPMI-8226
EKVX = system: EKVX
NCI-H460 = system: NCI-H460
OVCAR-4 = system: OVCAR-4
NCI-H226 = system: NCI-H226
SN12C = system: SN12C
HOP-18 = system: HOP-18
Malme-3M = system: Malme-3M
HL-60 = system: HL-60
SNB-78 = system: SNB-78
RXF 631 = system: RXF 631
DLD-1 = system: DLD-1
UACC-257 = system: UACC-257
LXFL 529 = system: LXFL 529
HCC 2998 = system: HCC 2998
SF-539 = system: SF-539
NCI-H23 = system: NCI-H23
U-251 = system: U-251
COLO 205 = system: COLO 205
ACHN = system: ACHN
HOP-92 = system: HOP-92
M19-MEL = system: M19-MEL
IGROV-1 = system: IGROV-1
UACC-62 = system: UACC-62
A549 = system: A549
LOX IMVI = system: LOX IMVI
K562 = system: K562
SF-295 = system: SF-295
A498 = system: A498
HOP-62 = system: HOP-62
DMS-273 = system: DMS-273
SR = system: SR
SK-MEL-5 = system: SK-MEL-5
SNB-75 = system: SNB-75
HT-29 = system: HT-29

## N#CC12CC3(CCC1CCC1(C2)OCCO1)OCCO3 (stereo unspecified)
RXF 393
  GI50: > 100 µM (inactive)
HCT-116
  GI50: > 100 µM (inactive)
DMS-114
  GI50: > 100 µM (inactive)
SK-MEL-28
  GI50: > 100 µM (inactive)
SK-OV-3
  GI50: > 100 µM (inactive)
OVCAR-8
  GI50: > 100 µM (inactive)
MOLT-4
  GI50: > 100 µM (inactive)
KM-20L2
  GI50: > 100 µM (inactive)
SK-MEL-2
  GI50: > 100 µM (inactive)
CAKI-1
  GI50: > 100 µM (inactive)
SW-620
  GI50: > 100 µM (inactive)
OVCAR-3
  GI50: > 100 µM (inactive)
CCRF-CEM
  GI50: > 100 µM (inactive)
UO-31
  GI50: > 100 µM (inactive)
OVCAR-5
  GI50: > 100 µM (inactive)
XF498
  GI50: > 100 µM (inactive)
TK-10
  GI50: > 100 µM (inactive)
SNB-19
  GI50: > 100 µM (inactive)
SF-268
  GI50: > 100 µM (inactive)
786-0
  GI50: > 100 µM (inactive)
HCT-15
  GI50: > 100 µM
NCI-H522
  GI50: > 100 µM (inactive)
M14
  GI50: > 100 µM (inactive)
KM12
  GI50: > 100 µM (inactive)
RPMI-8226
  GI50: > 100 µM (inactive)
EKVX
  GI50: > 100 µM (inactive)
NCI-H460
  GI50: > 100 µM (inactive)
OVCAR-4
  GI50: > 100 µM (inactive)
NCI-H226
  GI50: > 100 µM (inactive)
SN12C
  GI50: > 100 µM (inactive)
HOP-18
  GI50: > 100 µM (inactive)
Malme-3M
  GI50: > 100 µM (inactive)
HL-60
  GI50: > 100 µM (inactive)
SNB-78
  GI50: > 100 µM (inactive)
RXF 631
  GI50: > 100 µM (inactive)
DLD-1
  GI50: > 100 µM (inactive)
UACC-257
  GI50: > 100 µM (inactive)
LXFL 529
  GI50: > 100 µM (inactive)
HCC 2998
  GI50: > 100 µM (inactive)
SF-539
  GI50: > 100 µM (inactive)
NCI-H23
  GI50: > 100 µM (inactive)
U-251
  GI50: > 100 µM (inactive)
COLO 205
  GI50: > 100 µM (inactive)
ACHN
  GI50: > 100 µM (inactive)
HOP-92
  GI50: > 100 µM (inactive)
M19-MEL
  GI50: > 100 µM (inactive)
IGROV-1
  GI50: > 100 µM (inactive)
UACC-62
  GI50: > 100 µM (inactive)
A549
  GI50: > 100 µM (inactive)
LOX IMVI
  GI50: > 100 µM (inactive)
K562
  GI50: > 100 µM (inactive)
SF-295
  GI50: > 100 µM (inactive)
A498
  GI50: > 100 µM (inactive)
HOP-62
  GI50: > 100 µM (inactive)
DMS-273
  GI50: > 100 µM (inactive)
SR
  GI50: > 100 µM (inactive)
SK-MEL-5
  GI50: > 100 µM (inactive)
SNB-75
  GI50: > 100 µM (inactive)

## C=C(C)C1CC=C(C)CC1 (stereo unspecified)
RXF 393
  GI50: 982 µM (inactive)
HCT-116
  GI50: 923 µM (inactive)
DMS-114
  GI50: 891 µM (inactive)
SK-MEL-28
  GI50: 951 µM (inactive)
SK-OV-3
  GI50: 1140 µM (inactive)
OVCAR-8
  GI50: 1040 µM (inactive)
MOLT-4
  GI50: 1140 µM (inactive)
KM-20L2
  GI50: 904 µM (inactive)
SK-MEL-2
  GI50: 798 µM (inactive)
CAKI-1
  GI50: 935 µM (inactive)
SW-620
  GI50: 895 µM (inactive)
OVCAR-3
  GI50: 891 µM (inactive)
CCRF-CEM
  GI50: 826 µM (inactive)
UO-31
  GI50: 925 µM (inactive)
OVCAR-5
  GI50: 968 µM (inactive)
XF498
  GI50: 993 µM (inactive)
TK-10
  GI50: 1000 µM (inactive)
SNB-19
  GI50: 906 µM (inactive)
SF-268
  GI50: 944 µM (inactive)
786-0
  GI50: 923 µM (inactive)
HCT-15
  GI50: 891 µM
NCI-H522
  GI50: 989 µM (inactive)
M14
  GI50: 893 µM (inactive)
KM12
  GI50: 1020 µM (inactive)
RPMI-8226
  GI50: > 100 µM (inactive)
EKVX
  GI50: 1030 µM (inactive)
NCI-H460
  GI50: 968 µM (inactive)
OVCAR-4
  GI50: 964 µM (inactive)
NCI-H226
  GI50: 830 µM (inactive)
SN12C
  GI50: 893 µM (inactive)
HOP-18
  GI50: > 100 µM (inactive)
Malme-3M
  GI50: 885 µM (inactive)
HL-60
  GI50: 817 µM (inactive)
SNB-78
  GI50: 986 µM (inactive)
RXF 631
  GI50: 908 µM (inactive)
DLD-1
  GI50: 885 µM (inactive)
UACC-257
  GI50: 927 µM (inactive)
LXFL 529
  GI50: 855 µM (inactive)
HCC 2998
  GI50: 973 µM (inactive)
SF-539
  GI50: 899 µM (inactive)
NCI-H23
  GI50: 933 µM (inactive)
U-251
  GI50: 787 µM (inactive)
COLO 205
  GI50: 1010 µM (inactive)
ACHN
  GI50: 871 µM (inactive)
HOP-92
  GI50: 841 µM (inactive)
M19-MEL
  GI50: 879 µM (inactive)
IGROV-1
  GI50: 993 µM (inactive)
UACC-62
  GI50: 838 µM (inactive)
A549
  GI50: 968 µM (inactive)
LOX IMVI
  GI50: 897 µM (inactive)
K562
  GI50: 813 µM (inactive)
SF-295
  GI50: 925 µM (inactive)
A498
  GI50: 906 µM (inactive)
HOP-62
  GI50: 883 µM (inactive)
HT-29
  GI50: 923 µM (inactive)
DMS-273
  GI50: 993 µM (inactive)
SR
  GI50: 889 µM (inactive)
SK-MEL-5
  GI50: 849 µM (inactive)
SNB-75
  GI50: 865 µM (inactive)

## O=C(CCc1nnc2s/c(=C\c3ccccc3)c(=O)n12)Nc1cc(Cl)ccc1Cl
RXF 393
  GI50: > 100 µM (inactive)
HCT-116
  GI50: 24 µM (inactive)
DMS-114
  GI50: > 100 µM (inactive)
SK-MEL-28
  GI50: > 100 µM (inactive)
SK-OV-3
  GI50: > 100 µM (inactive)
OVCAR-8
  GI50: > 100 µM (inactive)
MOLT-4
  GI50: > 100 µM (inactive)
KM-20L2
  GI50: > 100 µM (inactive)
SK-MEL-2
  GI50: > 100 µM (inactive)
CAKI-1
  GI50: > 100 µM (inactive)
SW-620
  GI50: 4.15 µM (inactive)
OVCAR-3
  GI50: > 100 µM (inactive)
CCRF-CEM
  GI50: > 100 µM (inactive)
UO-31
  GI50: > 100 µM (inactive)
OVCAR-5
  GI50: > 100 µM (inactive)
XF498
  GI50: > 100 µM (inactive)
TK-10
  GI50: > 100 µM (inactive)
SNB-19
  GI50: > 100 µM (inactive)
SF-268
  GI50: > 100 µM (inactive)
786-0
  GI50: > 100 µM (inactive)
HCT-15
  GI50: 34.2 µM
NCI-H522
  GI50: > 100 µM (inactive)
M14
  GI50: > 100 µM (inactive)
KM12
  GI50: > 100 µM (inactive)
RPMI-8226
  GI50: > 100 µM (inactive)
EKVX
  GI50: > 100 µM (inactive)
NCI-H460
  GI50: > 100 µM (inactive)
OVCAR-4
  GI50: > 100 µM (inactive)
NCI-H226
  GI50: > 100 µM (inactive)
SN12C
  GI50: > 100 µM (inactive)
HOP-18
  GI50: > 100 µM (inactive)
Malme-3M
  GI50: > 100 µM (inactive)
HL-60
  GI50: > 100 µM (inactive)
SNB-78
  GI50: > 100 µM (inactive)
RXF 631
  GI50: > 100 µM (inactive)
DLD-1
  GI50: > 100 µM (inactive)
UACC-257
  GI50: > 100 µM (inactive)
LXFL 529
  GI50: > 100 µM (inactive)
HCC 2998
  GI50: > 100 µM (inactive)
SF-539
  GI50: > 100 µM (inactive)
NCI-H23
  GI50: > 100 µM (inactive)
U-251
  GI50: > 100 µM (inactive)
COLO 205
  GI50: > 100 µM (inactive)
ACHN
  GI50: > 100 µM (inactive)
HOP-92
  GI50: > 100 µM (inactive)
M19-MEL
  GI50: > 100 µM (inactive)
IGROV-1
  GI50: > 100 µM (inactive)
UACC-62
  GI50: > 100 µM (inactive)
A549
  GI50: > 100 µM (inactive)
LOX IMVI
  GI50: > 100 µM (inactive)
K562
  GI50: > 100 µM (inactive)
SF-295
  GI50: > 100 µM (inactive)
A498
  GI50: > 100 µM (inactive)
HOP-62
  GI50: > 100 µM (inactive)
HT-29
  GI50: > 100 µM (inactive)
DMS-273
  GI50: > 100 µM (inactive)
SR
  GI50: > 100 µM (inactive)
SK-MEL-5
  GI50: > 100 µM (inactive)
SNB-75
  GI50: > 100 µM (inactive)
